Test system: 32R-3n (DNA, G4) GCGGTGTGGGAAGAGGGAAGAGGGGGAGGCAG
Assay: UV melting, 260 nm
Details: 0.1 M Li+; 0.02 M Tris-HCl pH 7.0; 4 μM DNA, 40 μM ThT; psDNA

ΔTm: ~ 19.8 °C
SMILES: Cc1ccc2c(c1)sc(-c1ccc(N(C)C)cc1)[n+]2C

From PMC9561263 (2022)
